Reference: US8476298B2 (Exelixis, Inc., priority 2003, dated 2013)

Legend:
[1] = target: c-Kit kinase (Homo sapiens, UniProt P10721); test: c-Kit AlphaScreen kinase assay; assay type: biochemical;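 further: c-Kit kinase phosphorylating biotinylated poly(Glu,Tyr), ATP near its KM, 1 h reaction at ambient temperature, AlphaScreen chemiluminescence with streptavidin donor and anti-phosphotyrosine acceptor beads, 10-point inhibitor titration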
[2] = target: T1, c-Met (baculovirus expressed human c-Met kinase domain P948-S1343) (Homo sapiens, UniProt P08581); test: c-Met Luciferase-Coupled Chemiluminescent Kinase assay (LCCA); assay type: biochemical;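 further: kinase activity read as percent ATP left after reaction, by luciferase-luciferin chemiluminescence, with 1 µM ATP and 1 µM poly-EY substrate, 2 h at ambient temperature, 10-point dose-response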
T1 construct: human c-Met kinase domain P948-S1343; host or cells: baculovirus expression
T1 sequence (P08581 1011-1343 limits assumed): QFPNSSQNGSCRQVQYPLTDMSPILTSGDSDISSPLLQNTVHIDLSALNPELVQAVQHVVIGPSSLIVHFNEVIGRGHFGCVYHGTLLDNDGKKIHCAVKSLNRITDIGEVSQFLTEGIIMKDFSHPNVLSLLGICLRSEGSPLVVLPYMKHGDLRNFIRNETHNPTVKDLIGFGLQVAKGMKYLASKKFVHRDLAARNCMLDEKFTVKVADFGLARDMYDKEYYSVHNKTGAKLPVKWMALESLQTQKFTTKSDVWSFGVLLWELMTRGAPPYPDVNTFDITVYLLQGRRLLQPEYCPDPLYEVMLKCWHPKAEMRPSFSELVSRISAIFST

[3] = target: T2, KDR (baculovirus expressed human KDR kinase domain D807-V1356) (Homo sapiens, UniProt P35968); test: biochemical;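 further: Luciferase-coupled chemiluminescent kinase assay, activity read as percent ATP left after 4 h reaction at ambient temperature, ATP near KM, 10-point dose-response in 384-well plates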
T2 construct: human KDR kinase domain D807-V1356; host or cells: baculovirus expression
T2 sequence (P35968 807-1356): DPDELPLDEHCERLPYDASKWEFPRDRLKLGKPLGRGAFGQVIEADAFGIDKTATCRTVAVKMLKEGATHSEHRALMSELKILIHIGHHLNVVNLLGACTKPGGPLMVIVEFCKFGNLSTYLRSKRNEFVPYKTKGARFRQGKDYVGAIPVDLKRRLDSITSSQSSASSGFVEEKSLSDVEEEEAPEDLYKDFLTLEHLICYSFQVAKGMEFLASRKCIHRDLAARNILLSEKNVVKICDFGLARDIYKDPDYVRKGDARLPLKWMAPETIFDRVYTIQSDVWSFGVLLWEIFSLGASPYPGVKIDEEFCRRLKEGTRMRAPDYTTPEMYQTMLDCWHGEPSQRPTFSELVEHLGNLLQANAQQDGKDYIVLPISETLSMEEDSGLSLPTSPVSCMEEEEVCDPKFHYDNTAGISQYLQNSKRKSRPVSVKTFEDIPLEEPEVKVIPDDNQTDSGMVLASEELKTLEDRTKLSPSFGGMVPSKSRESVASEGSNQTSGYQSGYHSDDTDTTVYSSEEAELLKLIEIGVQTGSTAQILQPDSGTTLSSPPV
Experimental: Kinase activity and compound inhibition are investigated using one or more of the three assay formats described below. The ATP concentrations for each assay are selected to be close to the Michaelis-Menten constant (KM) for each individual kinase. Dose-response experiments are performed at 10 different inhibitor concentrations in a 384-well plate format.
KDR biochemical activity was assessed using a Luciferase-Coupled Chemiluminescent Kinase assay (LCCA) format. Kinase activity was measured as the percent ATP remaining following the kinase reaction. Remaining ATP was detected by luciferase-luciferin-coupled chemiluminescence. […] The mixture is incubated at ambient temperature for 4 hours after which 20 uL luciferase-luciferin mix is added and the chemiluminescent signal read using a Wallac Victor^2 reader.

[4] = target: T3, Flt-3 (baculovirus expressed human Flt-3 kinase domain R571-S993) (Homo sapiens, UniProt P36888); test: biochemical; conditions: read-out: flt3 IC50;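 further: Luciferase-coupled chemiluminescent kinase assay, activity read as percent ATP left after a 3 h reaction at room temperature, ATP near KM, 10-point dose-response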
T3 construct: human Flt-3 kinase domain R571-S993; host or cells: baculovirus expression
T3 sequence (P36888 571-993): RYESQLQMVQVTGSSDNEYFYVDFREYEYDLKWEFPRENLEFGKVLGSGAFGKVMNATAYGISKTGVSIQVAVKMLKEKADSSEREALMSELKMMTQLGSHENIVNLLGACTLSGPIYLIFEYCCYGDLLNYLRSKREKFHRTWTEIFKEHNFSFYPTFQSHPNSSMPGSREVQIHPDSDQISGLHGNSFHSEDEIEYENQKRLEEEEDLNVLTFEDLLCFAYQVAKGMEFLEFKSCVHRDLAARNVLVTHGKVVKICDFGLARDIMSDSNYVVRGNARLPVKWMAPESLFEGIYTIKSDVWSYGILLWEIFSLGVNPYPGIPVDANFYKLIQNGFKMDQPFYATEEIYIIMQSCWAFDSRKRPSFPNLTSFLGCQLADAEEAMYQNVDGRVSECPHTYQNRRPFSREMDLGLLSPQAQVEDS

[5] = target: T4, Flt-4 (baculovirus expressed human Flt-4 kinase domain D725-R1298) (Homo sapiens, UniProt P35916); test: flt-4 Alphascreen Tyrosine Kinase assay; assay type: biochemical; conditions: read-out: flt4 IC50;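 further: AlphaScreen chemiluminescence read-out of biotinylated poly(Glu,Tyr) 4:1 phosphorylation via streptavidin donor and PY100 anti-phosphotyrosine acceptor beads, ATP near KM, 1 hr kinase reaction, 10-point dose-response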
T4 construct: human Flt-4 kinase domain D725-R1298; host or cells: baculovirus expression
T4 sequence (P35916 725-1298 isoform P35916-1): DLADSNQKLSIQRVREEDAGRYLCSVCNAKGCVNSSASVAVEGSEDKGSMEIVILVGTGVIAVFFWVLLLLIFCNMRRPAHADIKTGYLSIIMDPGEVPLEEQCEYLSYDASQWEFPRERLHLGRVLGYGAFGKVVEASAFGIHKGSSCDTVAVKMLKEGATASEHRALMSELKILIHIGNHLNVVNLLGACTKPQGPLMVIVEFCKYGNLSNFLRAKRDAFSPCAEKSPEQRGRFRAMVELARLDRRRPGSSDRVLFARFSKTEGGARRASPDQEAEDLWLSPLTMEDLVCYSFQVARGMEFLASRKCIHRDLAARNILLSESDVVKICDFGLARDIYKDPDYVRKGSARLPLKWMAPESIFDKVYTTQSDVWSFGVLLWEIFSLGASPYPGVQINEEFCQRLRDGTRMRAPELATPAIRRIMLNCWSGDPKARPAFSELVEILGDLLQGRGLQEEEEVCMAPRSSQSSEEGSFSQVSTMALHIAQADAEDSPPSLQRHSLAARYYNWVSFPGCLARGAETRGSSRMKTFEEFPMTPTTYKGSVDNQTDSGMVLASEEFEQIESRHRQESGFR

c-Kit kinase, sequence (P10721 26-976): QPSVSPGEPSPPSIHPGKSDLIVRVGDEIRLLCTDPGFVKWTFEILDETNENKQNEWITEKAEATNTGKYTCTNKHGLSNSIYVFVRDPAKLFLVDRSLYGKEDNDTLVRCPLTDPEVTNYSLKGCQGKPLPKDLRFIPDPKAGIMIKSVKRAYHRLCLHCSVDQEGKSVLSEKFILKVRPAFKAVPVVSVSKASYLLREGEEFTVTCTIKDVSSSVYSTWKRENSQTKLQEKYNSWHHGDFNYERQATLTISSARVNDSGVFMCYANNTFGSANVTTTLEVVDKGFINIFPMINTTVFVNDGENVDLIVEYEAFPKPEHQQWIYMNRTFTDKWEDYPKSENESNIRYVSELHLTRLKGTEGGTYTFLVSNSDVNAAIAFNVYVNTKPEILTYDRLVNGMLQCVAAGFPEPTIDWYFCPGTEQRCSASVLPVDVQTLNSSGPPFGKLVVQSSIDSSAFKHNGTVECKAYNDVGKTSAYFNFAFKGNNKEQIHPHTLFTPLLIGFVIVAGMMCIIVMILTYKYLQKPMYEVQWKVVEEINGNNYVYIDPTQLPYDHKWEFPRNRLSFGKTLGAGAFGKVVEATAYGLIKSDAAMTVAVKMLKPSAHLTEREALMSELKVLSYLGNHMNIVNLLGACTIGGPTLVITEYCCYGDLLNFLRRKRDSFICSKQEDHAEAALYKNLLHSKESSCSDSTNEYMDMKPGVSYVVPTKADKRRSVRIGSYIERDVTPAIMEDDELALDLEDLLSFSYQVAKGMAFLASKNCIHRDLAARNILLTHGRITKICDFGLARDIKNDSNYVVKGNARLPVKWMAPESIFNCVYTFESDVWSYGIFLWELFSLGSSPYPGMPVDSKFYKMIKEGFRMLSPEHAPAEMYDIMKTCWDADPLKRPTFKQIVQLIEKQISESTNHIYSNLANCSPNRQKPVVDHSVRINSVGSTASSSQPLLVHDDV

| Structure (SMILES) | IC50 [1] [µM] | IC50 [2] [µM] | IC50 [3] [µM] | IC50 [4] [µM] | IC50 [5] [µM] |
| --- | --- | --- | --- | --- | --- |
| COc1cc2c(Oc3cc(C)c(NC(=O)C4(C(=O)Nc5ccc(F)cc5)CC4)cc3F)ccnc2cc1OCCCN1CCOCC1 [Example 326, N-[5-fluoro-2-methyl-4-({6-(methyloxy)-7-[(3-morpholin-4-ylpropyl)oxy]quinolin-4-yl}oxy)phenyl]-N′-(4-fluorophenyl)cyclopropane-1,1-dicarboxamide] | 0.05 to 0.5 | < 0.05 | < 0.05 | 0.05 to 0.5 | 0.05 to 0.5 |
| COc1cc2nccc(Oc3c(F)cc(NC(=O)C4(C(=O)Nc5ccc(F)cc5)CC4)c(F)c3F)c2cc1OC [Example 327, N-(4-{[6,7-bis(methyloxy)quinolin-4-yl]oxy}-2,3,5-trifluorophenyl)-N′-(4-fluorophenyl)cyclopropane-1,1-dicarboxamide] | 0.05 to 0.5 | < 0.05 | < 0.05 | 0.05 to 0.5 | 0.05 to 0.5 |
| COc1cc2nccc(Oc3cc(C)c(NC(=O)C4(C(=O)Nc5ccc(F)cc5)CC4)cc3F)c2cc1OC [Example 328, N-(4-{[6,7-bis(methyloxy)quinolin-4-yl]oxy}-5-fluoro-2-methylphenyl)-N′-(4-fluorophenyl)cyclopropane-1,1-dicarboxamide] | 0.05 to 0.5 | < 0.05 | 0.05 to 0.5 | 0.5 to 5 | 0.5 to 5 |
| COc1cc2nccc(Oc3cc(Cl)c(NC(=O)C4(C(=O)Nc5ccc(F)cc5)CC4)cc3C)c2cc1OC [Example 329, N-(4-{[6,7-bis(methyloxy)quinolin-4-yl]oxy}-2-chloro-5-methylphenyl)-N′-(4-fluorophenyl)cyclopropane-1,1-dicarboxamide] | 0.05 to 0.5 | < 0.05 | 0.05 to 0.5 | 0.5 to 5 | 0.05 to 0.5 |
| COc1cc2nccc(Oc3ccc(NC(=O)C4(C(=O)Nc5ccc(F)cc5)CC4)cc3F)c2cc1O [Example 330, N-(3-fluoro-4-{[6-hydroxy-7-(methyloxy)quinolin-4-yl]oxy}phenyl)-N′-(4-fluorophenyl)cyclopropane-1,1-dicarboxamide] | < 0.05 | < 0.05 | < 0.05 | < 0.05 | < 0.05 |
| COc1cc2c(Oc3ccc(NC(=O)C4(C(=O)Nc5ccc(F)cc5)CC4)c(C)c3)ccnc2cc1OCCCN1CCOCC1 [Example 331, N-(4-fluorophenyl)-N′-[2-methyl-4-({6-(methyloxy)-7-[(3-morpholin-4-ylpropyl)oxy]quinolin-4-yl}oxy)phenyl]cyclopropane-1,1-dicarboxamide] | < 0.05 | < 0.05 | < 0.05 | 0.05 to 0.5 | < 0.05 |
| COc1cc2c(Oc3ccc(NC(=O)C4(C(=O)Nc5ccc(F)cc5)CC4)cc3F)ccnc2cc1OCCCN1CCNCC1 [Example 332, N-[3-fluoro-4-({6-(methyloxy)-7-[(3-piperazin-1-ylpropyl)oxy]quinolin-4-yl}oxy)phenyl]-N′-(4-fluorophenyl)cyclopropane-1,1-dicarboxamide] | < 0.05 | < 0.05 | < 0.05 | < 0.05 | < 0.05 |
| COc1cc2c(Oc3ccc(NC(=O)C4(C(=O)Nc5ccc(F)cc5)CC4)cc3F)ccnc2cc1OCCCN1CCN(C)CC1 [Example 333, N-{3-fluoro-4-[(6-(methyloxy)-7-{[3-(4-methylpiperazin-1-yl)propyl]oxy}quinolin-4-yl)oxy]phenyl}-N′-(4-fluorophenyl)cyclopropane-1,1-dicarboxamide] | < 0.05 | < 0.05 | < 0.05 | < 0.05 | < 0.05 |
| COc1cc2c(Oc3ccc(NC(=O)C4(C(=O)Nc5ccc(F)cc5)CC4)cc3F)ccnc2cc1OCC1CCN(C)CC1 [Example 334, N-{3-fluoro-4-[(6-(methyloxy)-7-{[(1-methylpiperidin-4-yl)methyl]oxy}quinolin-4-yl)oxy]phenyl}-N′-(4-fluorophenyl)cyclopropane-1,1-dicarboxamide] | < 0.05 | < 0.05 | < 0.05 | < 0.05 | < 0.05 |
| CCN(CC)CCCOc1cc2nccc(Oc3ccc(NC(=O)C4(C(=O)Nc5ccc(F)cc5)CC4)cc3F)c2cc1OC [Example 336, N-(4-{[7-{[3-(diethylamino)propyl]oxy}-6-(methyloxy)quinolin-4-yl]oxy}-3-fluorophenyl)-N′-(4-fluorophenyl)cyclopropane-1,1-dicarboxamide] | < 0.05 | < 0.05 | < 0.05 | < 0.05 | < 0.05 |
| COc1cc2nccc(Oc3cc(Cl)c(NC(=O)C4(C(=O)Nc5ccc(F)cc5)CC4)cc3F)c2cc1OC [Example 337, N-(4-{[6,7-bis(methyloxy)quinolin-4-yl]oxy}-2-chloro-5-fluorophenyl)-N′-(4-fluorophenyl)cyclopropane-1,1-dicarboxamide] | 0.05 to 0.5 | < 0.05 | 0.05 to 0.5 | 0.5 to 5 | 0.5 to 5 |
| COc1cc2c(Oc3ccc(NC(=O)[C@@]4(C(=O)Nc5ccc(F)cc5)C[C@H]4C)cc3F)ccnc2cc1OCCCN1CCOCC1 [Example 342, (1S,2R)-N-[3-fluoro-4-({6-(methyloxy)-7-[(3-morpholin-4-ylpropyl)oxy]quinolin-4-yl}oxy)phenyl]-N′-(4-fluorophenyl)-2-methylcyclopropane-1,1-dicarboxamide] | 0.05 to 0.5 | < 0.05 | < 0.05 | < 0.05 | < 0.05 |
| COc1cc2c(Oc3ccc(NC(=O)[C@]4(C(=O)Nc5ccc(F)cc5)C[C@H]4C)cc3F)ccnc2cc1OCCCN1CCOCC1 [Example 343, (1R,2R)-N-[3-fluoro-4-({6-(methyloxy)-7-[(3-morpholin-4-ylpropyl)oxy]quinolin-4-yl}oxy)phenyl]-N′-(4-fluorophenyl)-2-methylcyclopropane-1,1-dicarboxamide] | < 0.05 | < 0.05 | < 0.05 | < 0.05 | < 0.05 |
